Results published in US5565433A, “Sulfated β-glycolipid derivatives as cell adhesion inhibitors” (Bristol-Myers Squibb Company, priority 1996, dated 1996).

Legend:
[1] = tested on: Reverse Passive Arthus Reaction in Rats; test: Reverse Passive Arthus Reaction in Rats, myeloperoxidase (MPO); format: in vivo; settings: rat, IV, % inhibition at 3 mg single dose, 4 hours
Text: (§1) 3. Reverse Passive Arthus Reaction in Rats
(§2) The reverse passive Arthus reaction in rats is a modification of the method by Mulligan et al., as described in J. Clin. Invest., (1991 ) 88:1396-1406. This is an experimental model in which the interaction of antigen-antibody complexes and complement leads to a severe vasculitis that is associated with edema, induration, erythema and hemorrhage. The interaction between the antigen-antibody complexes and complement leads to a localized influx of neutrophils. These neutrophils release a variety of mediators that are associated with tissue damage and vascular permeability. The localized inflammatory reaction is measured using different techniques i.e., vascular permeability and neutrophil influx which is evaluated both biochemically and microscopically.
(§3) Male Sprague Dawley specific pathogen-free rats with jugular vein cannulae (280-320 g, Hill Top Labs, Pa.) are used in these studies. Animals are acclimated for at least 1 day and individually housed in stainless steel cages. The dorsal region of the rats is closely clipped 2 days prior to the experiments and divided into 4 sites on each side of the midline. Prior to all injections the rats are sedated with 0.4 ml per 300 gm rat of ketamine/rompun [1000 mg (10 ml) of ketamine HCL is mixed with 40 mg (2.0 ml) Rompun] administered IP and or inhalation anesthesia with metafane (methoxyflurane).
(§4) Bovin Serum Albumin (BSA) and rabbit polyclonal IgG rich in anti-BSA are purchased from Sigma Chemical Co. (St. Louis, Mo.). Radiolabelled ^125 I-BSA (spAct 1-5 μCi/μg) is purchased from Dupont NEN (Boston, Mass.).
(§5) Each rat is administered intradermal (ID) injection of (0.4 mg, 0.6 mg and 0.8 mg) anti-BSA in a volume of 100 μl per injection in normal saline. The ID injections are randomized near the mid dorsal region on both sides of the back bone. Immediately after the ID injections of the anti-BSA, the rats are administered intravenous (IV) injections of BSA (10 mg in 1.0 ml) in normal saline containing ^125 I labeled BSA (1 μCi/ml BSA or 5.0 μCi/kg body wt) for quantification of dermal vascular injury. Anti-inflammatory agents such as inhibitors of adhesion molecules of the present invention are administered IV at a single dose of 3 mg immediately after BSA. Four (4) hours after the IV injection of BSA, the rats are anesthetized with metafane and 2 to 3 ml of blood is withdrawn via the cannula into an anticoagulant containing (EDTA or Heparin) tube and plasma separated and saved for neutrophil and albumin quantitation. The rats are killed and the skin surrounding the injection site (15 mm diameter) is punched out and weighed. The skin samples and a fixed volume of plasma (0.1 to 1.0 ml) is analyzed in a gamma-counter for ^125 I content. Skin samples from the contralateral side are processed and analyzed for myeloperoxidase activity (MPO) as a measure of neutrophil accumulation. As needed, samples are also processed for histological evaluation of the reacted sites.
MPO is located in the azurephil granules of polymorphonuclear leukocytes (PMN). Because of its abundance in these cells (5% dry weight), this enzyme is used as a marker for tissue neutrophil content. For tissue MPO content, the method of Bradley, et al., was used as described in J. Invest. […] Change in absorbance at 450 nm was measured at room temperature using a Vmax kinetic plate reader (Molecular Devices, Pale Alto, Calif., USA). Percent inhibition of the test compound at 3 mg dose was determined as follows: [formula] […]

[2] = tested on: Reverse Passive Arthus Reaction in Rats; test: Reverse Passive Arthus Reaction in Rats, vascular permeability (VP); format: in vivo; settings: rat, IV, % inhibition at 3 mg single dose, 4 hours
Text: as §1, §2, §3, §4, §5
Vascular Permeability (VP)
The calculation of the plasma protein exudation into skin is made by determining the radioactivity in the tissue and relating this to the level of radioactive albumin in the blood at the time of sacrifice. […] [formula]
Percent inhibition of the test compound at 3 mg was determined as follows: [formula] Myeloperoxidase (MPO)

Structure (SMILES)	RPA MPO % Inhib. [1] [%]	RPA VP % Inhib. [2] [%]
CCCCCCCCCCCCC/C=C/[C@@H](O)[C@H](CO[C@@H]1O[C@H](COS(=O)(=O)O)[C@H](OS(=O)(=O)O)[C@H](O)[C@H]1O)NC(=O)CCCCCCCCCCCCCCC [Example 2, (2S,3R,4E)-3-Hydroxy-2-hexadecanoylamino-1-[4,6-di-O-(sodiumoxysulfonyl)-β-D-galactopyranosyloxy]-4-octadecene]	33.5	63
CCCCCCCC/C=C\CCCCCCCCCCCCCC(=O)N[C@@H](CO[C@@H]1O[C@H](COS(=O)(=O)O)[C@H](OC(=O)c2ccccc2)[C@H](OC(=O)c2ccccc2)[C@H]1OS(=O)(=O)O)[C@@H](/C=C/CCCCCCCCCCCCC)OC(=O)c1ccccc1 [Example 7, (2S,3R,4E)-3-Benzoyloxy-1-[3,4-di-O-benzoyl-2,6-di-O-(sodiumoxysulfonyl)-β-D-galactopyranosyloxy]-2-(cis-15-tetracosenoylamino)-4-octadecene]	46	56
